SMILES strings stand for the structures. Structures can show the parent of a compound that is named as a salt.

Chain of rat TRPV1 (O35433 whole entry): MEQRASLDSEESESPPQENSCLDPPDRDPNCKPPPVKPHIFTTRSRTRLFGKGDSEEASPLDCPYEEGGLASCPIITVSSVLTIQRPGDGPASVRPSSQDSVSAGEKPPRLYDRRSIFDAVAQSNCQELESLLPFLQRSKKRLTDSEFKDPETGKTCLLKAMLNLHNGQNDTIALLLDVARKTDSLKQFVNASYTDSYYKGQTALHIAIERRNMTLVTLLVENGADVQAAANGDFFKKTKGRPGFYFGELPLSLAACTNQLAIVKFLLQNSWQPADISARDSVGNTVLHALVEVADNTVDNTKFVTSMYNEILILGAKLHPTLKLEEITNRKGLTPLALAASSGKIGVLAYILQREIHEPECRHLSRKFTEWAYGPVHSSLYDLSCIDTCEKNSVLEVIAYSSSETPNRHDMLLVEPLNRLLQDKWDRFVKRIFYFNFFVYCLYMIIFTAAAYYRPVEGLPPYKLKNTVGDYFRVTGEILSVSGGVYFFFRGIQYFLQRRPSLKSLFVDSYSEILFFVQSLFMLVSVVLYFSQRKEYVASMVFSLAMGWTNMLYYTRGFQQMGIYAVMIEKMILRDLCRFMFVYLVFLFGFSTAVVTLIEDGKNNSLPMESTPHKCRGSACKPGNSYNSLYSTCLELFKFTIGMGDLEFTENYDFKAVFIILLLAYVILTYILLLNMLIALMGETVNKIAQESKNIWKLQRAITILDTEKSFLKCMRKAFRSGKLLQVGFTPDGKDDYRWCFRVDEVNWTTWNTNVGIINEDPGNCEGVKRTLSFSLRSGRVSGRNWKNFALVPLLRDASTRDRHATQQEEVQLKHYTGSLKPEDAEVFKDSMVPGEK

This experiment concerns the target rat TRPV1 (Rattus norvegicus (Rat), UniProt O35433). As to conditions: read-out: Rat IC50.
Experimental: Biological Testing: Functional Assay: Block of Capsaicin-Induced Ca^2+ Influx A. Human Assay
Cells were passaged frequently, every 3-5 days, to avoid overgrowth, depletion of essential medium components, or acidic medium exposure. Cells were passaged using a brief wash in 0.05% trypsin with 1 mM EDTA, followed by dissociation in divalent-free phosphate-buffered saline (Hyclone #SH30028.02). […] The assay buffer was composed of 130 mM NaCl, 2 mM KCl, 2 mM MgCl2, 10 mM HEPES, 5 mM glucose, and either 2 mM or 20 μM CaCl2. On the day of the experiment, the culture medium was replaced with 2 mM calcium assay buffer using an automated plate washer (ELx405; Biotek, VT). […] After loading the cells, the dye solution was replaced with 50 μL/well of 20 μM calcium assay buffer using the ELx405 plate washer. Test compounds (50 μL/well) were added to the plate and incubated for 30 min. […] The IC50 values were determined. […] The contents of the wells were mixed 3 times (40 μL mix volume) immediately after the additions were made. Concentration dependence of block was determined by exposing each well of cells in duplicate rows of a 96 well plate to a serial dilution of test compound. The concentration series usually started at 10 μM with a three-fold serial decrement in concentration. The magnitude of the capsaicin response was determined by measuring the change in fluo3 fluorescence before and 100 seconds after the addition of the agonist. Data were analyzed using a non-linear regression program (Origin; OriginLab, MA). IC50 values shown are the average (mean) of the results obtained.
The assay was performed as described above, using HEK293 cells transfected with rat TRPV1 (rTRPV1/HEK293). […] IC50 values shown are the average (mean) of the results obtained.
As to `FC(F)(F)c1ccc(Nc2nc(N3CCCCCC3)nc3c2CCN(c2ncccc2C(F)(F)F)CC3)nc1` [Example 194, 2-Azepan-1-yl-7-[3-(trifluoromethyl)pyridin-2-yl]-N-[5-(trifluoromethyl)pyridin-2-yl]-6,7,8,9-tetrahydro-5H-pyrimido[4,5-d]azepin-4-amine], the IC50 (usually the midpoint of a concentration-inhibition curve) amounted to 70 nM.
To `FC(F)(F)c1ccc(Nc2nc(N3CCC3)nc3c2CCN(c2ncccc2C(F)(F)F)CC3)nc1` [Example 197, 2-Azetidin-1-yl-7-[3-(trifluoromethyl)pyridin-2-yl]-N-[5-(trifluoromethyl)pyridin-2-yl]-6,7,8,9-tetrahydro-5H-pyrimido[4,5-d]azepin-4-amine trifluoroacetic acid salt] belongs 150 nM.
The result for `CC(C)c1nc2c(c(Nc3ccc(N)cc3)n1)CCN(c1ncccc1C(F)(F)F)CC2` [Example 198, N-{2-(1-Methylethyl)-7-[3-(trifluoromethyl)pyridin-2-yl]-6,7,8,9-tetrahydro-5H-pyrimido[4,5-d]azepin-4-yl}benzene-1,4-diamine trifluoroacetic acid salt] reads 9160 nM; that for `CC(C)c1nc2c(c(Nc3ccc(C(C)(C)C)c(N)c3)n1)CCN(c1ncccc1C(F)(F)F)CC2` [Example 199, 4-(1,1-Dimethylethyl)-N1-{2-(1-methylethyl)-7-[3-(trifluoromethyl)pyridin-2-yl]-6,7,8,9-tetrahydro-5H-pyrimido[4,5-d]azepin-4-yl}benzene-1,3-diamine], 1360 nM.
The result for `CC(C)(C)c1ccc(Nc2nc(N3CCCCC3)nc3c2CCN(c2ncccc2C(F)(F)F)CC3)cc1N` [Example 200, 4-(1,1-Dimethylethyl)-N1-{2-piperidin-1-yl-7-[3-(trifluoromethyl)pyridin-2-yl]-6,7,8,9-tetrahydro-5H-pyrimido[4,5-d]azepin-4-yl}benzene-1,3-diamine] reads 110 nM; that for `CC(C)c1nc2c(c(Nc3ccc(C(C)(C)C)cc3)n1)CCN(c1ncc(N)cc1C(F)(F)F)CC2` [Example 201, 7-[5-Amino-3-(trifluoromethyl)pyridin-2-yl]-N-[4-(1,1-dimethylethyl)phenyl]-2-(1-methylethyl)-6,7,8,9-tetrahydro-5H-pyrimido[4,5-d]azepin-4-amine], 320 nM; that for `CSc1nc2c(c(Nc3ccc(C(C)(C)C)cc3)n1)CCN(c1ncccc1C(F)(F)F)CC2` [Example 202, N-[4-(1,1-Dimethylethyl)phenyl]-2-(methylsulfanyl)-7-[3-(trifluoromethyl)pyridin-2-yl]-6,7,8,9-tetrahydro-5H-pyrimido[4,5-d]azepin-4-amine], 12400 nM.
On to `CSc1nc2c(c(Nc3ccc(C(F)(F)F)cc3Cl)n1)CCN(c1ncccc1C(F)(F)F)CC2` [Example 203, N-[2-Chloro-4-(trifluoromethyl)phenyl]-2-(methylsulfanyl)-7-[3-(trifluoromethyl)pyridin-2-yl]-6,7,8,9-tetrahydro-5H-pyrimido[4,5-d]azepin-4-amine], for which the IC50 was greater than 6670 nM.
For `CSc1nc2c(c(Nc3ccc(C(F)(F)F)cc3C)n1)CCN(c1ncccc1C(F)(F)F)CC2` [Example 204, 2-(Methylsulfanyl)-N-[2-methyl-4-(trifluoromethyl)phenyl]-7-[3-(trifluoromethyl)pyridin-2-yl]-6,7,8,9-tetrahydro-5H-pyrimido[4,5-d]azepin-4-amine], the IC50 was 560 nM.
To `CSc1nc2c(c(Nc3ccc4c(c3)N(C)CCC4)n1)CCN(c1ncccc1C(F)(F)F)CC2` [Example 205, 2-(Methylsulfanyl)-N-(1-methyl-1,2,3,4-tetrahydroquinolin-7-yl)-7-[3-(trifluoromethyl)pyridin-2-yl]-6,7,8,9-tetrahydro-5H-pyrimido[4,5-d]azepin-4-amine] belongs 2280 nM; to `CC(C)(C)c1ccc(Nc2nc(S(C)(=O)=O)nc3c2CCN(c2ncccc2C(F)(F)F)CC3)cc1` [Example 207, N-[4-(1,1-Dimethylethyl)phenyl]-2-(methylsulfonyl)-7-[3-(trifluoromethyl)pyridin-2-yl]-6,7,8,9-tetrahydro-5H-pyrimido[4,5-d]azepin-4-amine], 770 nM.

Values taken from US9422293B2 (priority 2006, dated 2016).
